Assays:
GLP1R [1] = molecular target: T1, GLP1R (Homo sapiens, UniProt P43220); test: GLP-1R/β-Arrestin recruitment assay (PathHunter eXpress GLP1R CHO-K1 β-Arrestin GPCR Assay); assay type: cell-based; parameters: host or cells: PathHunter CHO-K1 GLP1R β-Arrestin cells (from the kit); conditions: averaged Bmax, Percentage of Control GLP-1 (7-37), top concentration 10 μM
Source text: GLP-1R agonist activity with respect to β-arrestin recruitment can be determined with a cell-based functional assay using PathHunter eXpress GLP1R CHO-K1 β-Arrestin GPCR Assay kit (DiscoverX Cat #93-0300E2CPOM).
The PathHunter β-Arrestin GPCR assay technology utilizes a β-galactosidase ([…]) enzyme that is split into two fragments, the smaller Enzyme Donor (ED) and the larger Enzyme Acceptor (EA). These fragments can be fused to two proteins that may interact with each other, such as EA-β-Arrestin and ED-GLP-1R. The fusions can be stably expressed in a test cell line, such as the PathHunter CHO-K1 GLP1R β-Arrestin cells described below. […]
In this experiment, PathHunter CHO-K1 GLP1R β-Arrestin cells from the assay kit were plated at a density of 1000 or 2000 cells/[…]/well in a 384-well white/clear bottom plates (Greiner Cat #781098). […] Cells were stored in a 37° C. incubator under 5% CO2 and kept for approximately 48 hours until ready to run the assay. […]
Following 90 min incubation, detection reagents were made up by combining 1 part Galacton Star Substrate with 5 parts Emerald II™ Solution, and 19 parts of PathHunter Cell Assay Buffer, respectively. […] Plates were then read on Envision for 0.1 sec/well.
EC50 determinations were made from agonist dose-response curves analyzed with a curve fitting program using a 4-parameter logistic dose response equation. […]

[2] = Monkey oral pharmacokinetic (PK) study; assay type: in vivo, Cynomolgus monkeys (Macaca fascicularis); conditions: for plasma concentration-time profile: PO, over about 24 hours after oral dosing, FIGS. 8A-8E; for AUC0-24 h (Arbitrary units) / Cmax (Arbitrary unit): oral
Description: Appropriate volumes of vehicles (e.g., 2% Tween 80 (v:v) and 0.5% MC (w:v) in saline or 0.5% MC (w:v) in water were then added into the mortar containing the ground compounds, and the mixture was then grinded with a pestle until a homogeneous paste was formed. Additional appropriate volumes of vehicles were added into the mortar containing each compound, and the mixture was grinded further with the pestle until a homogeneous suspension was obtained.
The suspension was then transferred into a glass bottle. The mortar and the pestle were rinsed with the vehicle until no compound was left in the mortar or on the pestle.
The rest of the vehicle was added to make up the final dosing volume of about 1 mg/mL or 2 mg/mL (i.e., final dosing volume of about 5 mL/kg), and the homogenous suspension was continuously stirred prior to and during the dosing.
Non-nave Cynomolgus male monkeys (n=3/test article; sourced from Hainan Jingang Biotech Co., Ltd., Nayang Xintan, Fucheng Town, Qiongshan District, Haikou City, Hainan Province, China); or non-naïve aged, obese, and diabetic male Macaca fascicularis monkeys (n=3/test article, Source: Kunming Biomed International Colony) were used in pre-clinical in vivo studies. All non-nave Cynomolgus male monkeys were approximately 3 to 5 years old, weighed about 2.5-5 kg, and were within ±20% of the average body weight. All non-nave aged, obese, and diabetic male Macaca fascicularis monkeys were approximately 12 to 20 years old, weighed about >8-12 kg.
All animals were fasted overnight before dosing, and the food were supplied approximately 4 hours post dose (with free access to water all the time).
Animals were restrained at designated time points for blood sampling. Approximately 500 μL of blood samples was taken via cephalic or saphenous vein into EDTA-K2 tubes. Blood samples were put on wet ice before centrifugation.
For oral administration (PO) of either Dose 1 or Dose 2: blood samples were collected at pre-dose, and at 15 min, 30 min, 1 hr, 2 hr, 4 hr, (6 hr for compounds 19 and 28 with cynomolgus monkeys only), 8 hr, 12 hr, and 24 hr post dose (i.e., 9 or 10 total time points for each compound at each dose).
The blood samples were centrifuged at approximately 2,000-4,000 rpm for about 10-15 minutes at 2-8° C., and each resulting plasma portion was then transferred into an individual tube.
LC-MS/MS methods were developed, and bioanalysis for the test articles in monkey plasma was performed according to the developed LC-MS/MS methods.
Undiluted plasma samples: An aliquot of 20-50 μL plasma sample was mixed with 200 μL of ACN or MeOH containing one of the internal standards (IS, e.g., Diclofenac or Terfenadine) The mixture was then vortexed for about 1-5 min, and centrifuged at about 4,000-5,800 rpm for about 10-15 min. An aliquot of 1 μL supernatant was used for LC-MS/MS analysis.
Plasma samples with 10-fold dilution: An aliquot of 2 μL plasma sample was first mixed with 18 μL of blank plasma, then 200 μL of ACN containing 100 ng/mL IS (e.g. Diclofenac) was added to the mixture. The mixture was then vortexed for about 10 min, and was centrifuged at about 5,800 rpm for about 10 min. An aliquot of 1 μL supernatant was used for LC-MS/MS analysis.
MS conditions: Positive ion, ESI, MRM detection with parent and daughter ions, internal standard Diclofenac. • Compound ID: Compounds 19, 28, 29, 225 or 418 (control) HPLC conditions Method 1: • Mobile Phase A: H2O-0.025% FA-1 mM NH4OAC • Mobile Phase B: MeOH-0.025% FA-1 mM NH4OAC
Pharmacokinetics parameters, including area under the curve (AUC0-t), maximum plasma concentration (Cmax), time to reach maximum plasma concentration (Tmax), oral bioavailability (F %), etc., were calculated using Phoenix software (Version 6.4) and non-compartment model.

GLP1R [3] = molecular target: T1, GLP1R; test: β-Arrestin-mediated GLP1R internalization assay (PathHunter engineered U2OS cells); assay type: cell-based; parameters: host or cells: PathHunter engineered U2OS cells; conditions: averaged Bmax, Percentage of Control GLP-1 (7-37), top concentration 10 μM
Source text: A similar assay can also be used to assess the extent of signal attenuation due to GLP-1R internalization (the β-Arrestin Internalization Assay). In this assay, activated GLP1R Internalization cells were engineered to co-express an untagged GLP1R, Enzyme Acceptor (EA) tagged β-Arrestin, and a ProLink™ (PK) tag localized to the endosomes. Activation of the GLP1R induces β-Arrestin recruitment, which leads to internalization of the Receptor/Arrestin-EA complex in PK-tagged endosomes. This forces complementation of the two β-galactosidase enzyme fragments (EA and PK) to form a functional enzyme that hydrolyzes substrate to generate a chemiluminescent signal. […]
Specifically, PathHunter engineered U2OS cells from the assay kit (Cat #93-0724E3CP0L) were plated at a density of 2000 cells/20 μL/well in a 384-well white/clear bottom plates (Greiner Cat #781098). […] Cells were stored in a 37° C. incubator and kept for approximately 48 hours until ready for the assay. […]
Following 180 min incubation, detection reagents were made up by combining 1 part Galacton Star Substrate with 5 parts Emerald II™ Solution, and 19 parts of PathHunter Cell Assay Buffer, respectively. […] Plates were then read on Envision for 0.1 sec/well.
EC50 determinations were made from agonist dose-response curves analyzed with a curve fitting program using a 4-parameter logistic dose response equation.

[4] = Dose 1, non-naive Cynomolgus male monkeys

T1 sequence (P43220 24-463): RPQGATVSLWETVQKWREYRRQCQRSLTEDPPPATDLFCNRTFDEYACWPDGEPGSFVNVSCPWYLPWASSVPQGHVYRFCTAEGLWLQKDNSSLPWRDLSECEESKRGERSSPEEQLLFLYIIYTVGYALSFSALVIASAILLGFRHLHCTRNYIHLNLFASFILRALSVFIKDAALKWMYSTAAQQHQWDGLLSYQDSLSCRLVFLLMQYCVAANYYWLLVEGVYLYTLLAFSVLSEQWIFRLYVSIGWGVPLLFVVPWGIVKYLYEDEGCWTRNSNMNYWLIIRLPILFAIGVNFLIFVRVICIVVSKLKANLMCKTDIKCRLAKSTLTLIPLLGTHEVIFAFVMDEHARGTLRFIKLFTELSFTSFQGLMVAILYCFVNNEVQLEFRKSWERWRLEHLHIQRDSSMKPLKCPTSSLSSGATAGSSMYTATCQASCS

Row | plasma concentration-time profile [2] | AUC0-24 h (Arbitrary units) ([2]; Dose 2, monkeys) | Cmax (Arbitrary unit) ([2]; Dose 2, monkeys) | SMILES | also measured
1 |  |  |  | O=C(O)c1ccc2nc(CN3CCN(c4cccc(NCc5ccc(Cl)cc5F)n4)CC3)n(C[C@@H]3CCO3)c2c1 [Compound 1, (S)-2-((4-(6-(4-chloro-2-fluorobenzylamino)pyridin-2-yl)piperazin-1-yl)methyl)-1-(oxetan-2-ylmethyl)-1 h-benzo[d]imidazole-6-carboxylic acid] | Bmax (POC) (GLP1R [1]): 2.80 POC
2 | sustained at a more constant level |  |  | N#Cc1ccc(COc2cccc(C3=CCN(Cc4nc5ccc(C(=O)O)cc5n4C[C@@H]4CCO4)CC3)n2)c(F)c1 [Compound 19, (S)-2-((4-(6-(4-cyano-2-fluorobenzyloxy)pyridin-2-yl)-5,6-dihydropyridin-1(2H)-yl)methyl)-1-(oxetan-2-ylmethyl)-1 h-benzo[d]imidazole-6-carboxylic acid] | AUC0-24 h (Arbitrary units) [2, 4]: 1130 Arbitrary units; Cmax (Arbitrary unit) [2, 4]: 125 Arbitrary unit
3 | sustained at a more constant level |  |  | O=C(O)c1ccc2nc(CN3CC=C(c4cccc(OCc5ccc(Cl)cc5F)c4)CC3)n(C[C@@H]3CCO3)c2c1 [Compound 28, (S)-2-((4-(3-((4-chloro-2-fluorobenzyl)oxy)phenyl)-3,6-dihydropyridin-1(2H)-yl)methyl)-1-(oxetan-2-ylmethyl)-1 h-benzo[d]imidazole-6-carboxylic acid] | AUC0-24 h (Arbitrary units) [2, 4]: 24900 Arbitrary units; Cmax (Arbitrary unit) [2, 4]: 3910 Arbitrary unit
4 | sustained at a more constant level | 21800 | 3380 | O=C(O)c1ccc2nc(CN3CC=C(c4ccc(F)c(OCc5ccc(Cl)cc5F)c4)CC3)n(C[C@@H]3CCO3)c2c1 [Compound 29, (S)-2-((4-(3-((4-chloro-2-fluorobenzyl)oxy)-4-fluorophenyl)-3,6-dihydropyridin-1(2H)-yl)methyl)-1-(oxetan-2-ylmethyl)-1 h-benzo[d]imidazole-6-carboxylic acid] | 
5 | sustained at a more constant level | 1500 | 184 | N#Cc1ccc(COc2cccc(C3=CCN(Cc4nc5ccc(C(=O)O)nc5n4C[C@@H]4CCO4)CC3)n2)c(F)c1 [Compound 225, (S)-2-((6-((4-cyano-2-fluorobenzyl)oxy)-3′,6′-dihydro-[2,4′-bipyridin]-1′(2′H)-yl)methyl)-3-(oxetan-2-ylmethyl)-3H-imidazo[4,5-b]pyridine-5-carboxylic acid] | 
6 |  |  |  | O=C(O)c1ccc2nc(CN3CC=C(c4ccc(F)c(OCc5ccc(Cl)cc5F)c4)CC3)n(C[C@@H]3CCO3)c2n1 [Compound 236, (S)-2-((4-(3-((4-chloro-2-fluorobenzyl)oxy)-4-fluorophenyl)-5,6-dihydropyridin-1(2H)-yl)methyl)-3-(oxetan-2-ylmethyl)-3H-imidazo[4,5-b]pyridine-5-carboxylic acid] | Bmax (POC) (GLP1R [3]): 30.0 POC
7 |  | 774 | 232 | N#Cc1ccc(COc2cccc(C3CCN(Cc4nc5ccc(C(=O)O)cc5n4C[C@@H]4CCO4)CC3)n2)c(F)c1 [Compound 418, reference compound] | drop in plasma concentration ([2]; over about 24 hours post oral dosing, Dose 2, FIG. 8F): about 10 fold

— patent US12365670B2, “GLP-IR agonists and uses thereof” (QILU REGOR THERAPEUTICS INC., priority 2018, dated 2025)
